The subject of test [1] is mutant HIV-1 with I84V/L90M mutations in the protease gene. It counts as cell-based. The settings on record: I84V/L90M mutant.
In test [2] the test system is wild-type HIV-1 strain IIIB. The test can be described thus: microbe, parasite or virus in culture. The following applies: read-out: EC50. It counts as cell-based.

The structures appear in SMILES notation.

Take `COc1ccc(S(=O)(=O)N(CC(C)C)CC(O)C(Cc2ccc(OCc3ccccc3)cc2)NC(=O)OC2COC3OCCC23)cc1` (stereo not drawn): the I84V/L90M fold change result in test [1] is listed as “— (≦3)”.

On to `CCOC(=O)COP(=O)(COc1ccc(CC(NC(=O)OC2COC3OCCC23)C(O)CN(CC(C)C)S(=O)(=O)c2ccc(OC)cc2)cc1)Oc1ccccc1` (stereo not drawn) [drawing 658 R1=OPh R2=Glc-Et], for which, in test [2], the EC50 was < 50 nM.

In the case of `COc1ccc(S(=O)(=O)N(CC(C)C)C[C@@H](O)[C@H](Cc2ccc(OCP(=O)(Oc3ccccc3)OC(C)C(=O)OCCN3CCOCC3)cc2)NC(=O)O[C@H]2CO[C@H]3OCC[C@H]32)cc1` (stereo partly drawn) [drawing 658 R1=OPh R2=Lac-EtMor], the EC50 in test [2] is > 5000 nM.

Consider `COC(=O)C(C)OP(=O)(COc1ccc(C[C@H](NC(=O)O[C@H]2CO[C@H]3OCC[C@H]32)[C@H](O)CN(CC(C)C)S(=O)(=O)c2ccc(OC)cc2)cc1)Oc1ccccc1` (stereo partly drawn) [drawing 658 R1=OPh R2=Lac-Me], for which, in test [2], the EC50 fell in the range of 50 to 500 nM.

Regarding `COc1ccc(S(=O)(=O)N(CC(C)C)C[C@@H](O)[C@H](Cc2ccc(OCP(=O)(Oc3ccccc3)OC(C)C(=O)OCCCN3CCOCC3)cc2)NC(=O)O[C@H]2CO[C@H]3OCC[C@H]32)cc1` (stereo partly drawn) [drawing 658 R1=OPh R2=Lac-PrMor], the EC50 in test [2] was > 5000 nM.

For `CCOC(=O)C(CC)OP(=O)(COc1ccc(CC(NC(=O)OC2COC3OCCC23)C(O)CN(CC(C)C)S(=O)(=O)c2ccc(OC)cc2)cc1)Oc1ccccc1` [drawing 659 R1=OPh R2=(R)Hba-Et], the EC50 in test [2] is < 50 nM.

For the molecule `CCOC(=O)C(CC)OP(=O)(COc1ccc(CC(NC(=O)OC2COC3OCCC23)C(O)CN(CC(C)C)S(=O)(=O)c2ccc(OC)cc2)cc1)Oc1ccccc1` [drawing 659 R1=OPh R2=(S)Hba-Et], the EC50 in test [2] was < 50 nM.

As to `CCC(OP(=O)(COc1ccc(CC(NC(=O)OC2COC3OCCC23)C(O)CN(CC(C)C)S(=O)(=O)c2ccc(OC)cc2)cc1)Oc1ccccc1)C(=O)OC(C)(C)C` [drawing 659 R1=OPh R2=(S)Hba-tBu], the EC50 in test [2] is < 50 nM.

`COc1ccc(S(=O)(=O)N(CC(C)C)C[C@@H](O)[C@H](Cc2ccc(OCP(=O)(Oc3ccccc3)O[C@@H](C)C(=O)OCCN3CCOCC3)cc2)NC(=O)O[C@H]2CO[C@H]3OCC[C@H]32)cc1` (stereo partly drawn) [drawing 659 R1=OPh R2=(S)Lac-EtMor]: the EC50 in test [2] was > 5000 nM.

Consider `COc1ccc(S(=O)(=O)N(CC(C)C)C[C@@H](O)[C@H](Cc2ccc(OCP(=O)(Oc3ccccc3)O[C@@H](C)C(=O)OCCN3CCCCC3)cc2)NC(=O)O[C@H]2CO[C@H]3OCC[C@H]32)cc1` (stereo partly drawn) [drawing 659 R1=OPh R2=(S)Lac-EtPip], for which the EC50 in test [2] was 50 to 500 nM.

With `COc1ccc(S(=O)(=O)N(CC(C)C)C[C@@H](O)[C@H](Cc2ccc(OCP(=O)(Oc3ccccc3)O[C@@H](C)C(=O)OCCCN3CCOCC3)cc2)NC(=O)O[C@H]2CO[C@H]3OCC[C@H]32)cc1` (stereo partly drawn) [drawing 659 R1=OPh R2=(S)Lac-PrMor], in test [2], the EC50 was > 5000 nM.

As for `CCOC(=O)[C@H](C)OP(=O)(COc1ccc(C[C@H](NC(=O)O[C@H]2CO[C@H]3OCC[C@H]32)[C@H](O)CN(CC(C)C)S(=O)(=O)c2ccc(OC)cc2)cc1)ON1CCOCC1` (stereo partly drawn) [drawing 660 R1=OMor R2=(S)Lac-Et], the EC50 in test [2] is > 5000 nM.

With `CCOC(=O)[C@H](C)OP(=O)(COc1ccc(C[C@H](NC(=O)O[C@H]2CO[C@H]3OCC[C@H]32)[C@H](O)CN(CC(C)C)S(=O)(=O)c2ccc(OC)cc2)cc1)ON(C)C` (stereo partly drawn) [drawing 660 R1=ONMe2 R2=(S)Lac-Et], the EC50 in test [2] is 50 to 500 nM.

Consider `CCOC(=O)[C@H](C)OP(=O)(COc1ccc(C[C@H](NC(=O)O[C@H]2CO[C@H]3OCC[C@H]32)[C@H](O)CN(CC(C)C)S(=O)(=O)c2ccc(OC)cc2)cc1)Oc1cccc(CN2CCOCC2)c1` (stereo partly drawn) [drawing 660 R1=OPh-m-CH2Mor R2=(S)Lac-Et], for which the EC50 in test [2] lay in the range of 50 to 500 nM.

With `CCOC(=O)[C@H](C)OP(=O)(COc1ccc(C[C@H](NC(=O)O[C@H]2CO[C@H]3OCC[C@H]32)[C@H](O)CN(CC(C)C)S(=O)(=O)c2ccc(OC)cc2)cc1)Oc1cccc(CN(C)C)c1` (stereo partly drawn) [drawing 660 R1=OPh-m-CH2NMe2 R2=(S)Lac-Et], the EC50 in test [2] lay within 500 to 5000 nM.

As to `CCOC(=O)[C@H](C)OP(=O)(COc1ccc(C[C@H](NC(=O)O[C@H]2CO[C@H]3OCC[C@H]32)[C@H](O)CN(CC(C)C)S(=O)(=O)c2ccc(OC)cc2)cc1)Oc1cccc(CN(C)CCOC)c1` (stereo partly drawn) [drawing 660 R1=OPh-m-CH2NMeC2OM R2=(S)Lac-Et], in test [2], the EC50 was 50 to 500 nM.

Regarding `CCOC(=O)[C@H](C)OP(=O)(COc1ccc(C[C@H](NC(=O)O[C@H]2CO[C@H]3OCC[C@H]32)[C@H](O)CN(CC(C)C)S(=O)(=O)c2ccc(OC)cc2)cc1)Oc1cccc(CO)c1` (stereo partly drawn) [drawing 660 R1=OPh-m-CH2OH R2=(S)Lac-Et], the EC50 in test [2] is 50 to 500 nM.

As to `CCOC(=O)[C@H](C)OP(=O)(COc1ccc(C[C@H](NC(=O)O[C@H]2CO[C@H]3OCC[C@H]32)[C@H](O)CN(CC(C)C)S(=O)(=O)c2ccc(OC)cc2)cc1)Oc1cccc(CN2CCCCC2)c1` (stereo partly drawn) [drawing 660 R1=OPh-m-CH2Pip R2=(S)Lac-Et], in test [2], the EC50 is 50 to 500 nM.

With `CCOC(=O)C(C)OP(=O)(COc1ccc(CC(NC(=O)OC2COC3OCCC23)C(O)CN(CC(C)C)S(=O)(=O)c2ccc(OC)cc2)cc1)Oc1cccc(C(=O)O)c1` [drawing 660 R1=OPh-m-COOH R2=(S)Lac-Et], in test [2], the EC50 lay within 50 to 500 nM.

With `CCOC(=O)C(C)OP(=O)(COc1ccc(CC(NC(=O)OC2COC3OCCC23)C(O)CN(CC(C)C)S(=O)(=O)c2ccc(OC)cc2)cc1)Oc1ccccc1OCC` [drawing 660 R1=OPh-o-OEt R2=(S)Lac-Et], the EC50 in test [2] is < 50 nM.

For the molecule `CCOC(=O)C(C)OP(=O)(COc1ccc(CC(NC(=O)OC2COC3OCCC23)C(O)CN(CC(C)C)S(=O)(=O)c2ccc(OC)cc2)cc1)Oc1ccccc1CC(C)C` [drawing 660 R1=OPh—o-i-But R2=(S)Lac-Et], the EC50 in test [2] was < 50 nM.

Consider `CCCCc1ccc(OP(=O)(COc2ccc(C[C@H](NC(=O)O[C@H]3CO[C@H]4OCC[C@H]43)[C@H](O)CN(CC(C)C)S(=O)(=O)c3ccc(OC)cc3)cc2)O[C@@H](C)C(=O)OCC)cc1` (stereo partly drawn) [drawing 660 R1=OPh—p-n-But R2=(S)Lac-Et], for which the EC50 in test [2] was < 50 nM.

With `CCCCCCCCc1ccc(OP(=O)(COc2ccc(C[C@H](NC(=O)O[C@H]3CO[C@H]4OCC[C@H]43)[C@H](O)CN(CC(C)C)S(=O)(=O)c3ccc(OC)cc3)cc2)O[C@@H](C)C(=O)OCC)cc1` (stereo partly drawn) [drawing 660 R1=OPh—p-n-Oct R2=(S)Lac-Et], the EC50 in test [2] lay in the range of 50 to 500 nM.

`CCOC(=O)[C@H](C)OP(=O)(COc1ccc(C[C@H](NC(=O)O[C@H]2CO[C@H]3OCC[C@H]32)[C@H](O)CN(CC(C)C)S(=O)(=O)c2ccc(OC)cc2)cc1)ON1CCCCC1` (stereo partly drawn) [drawing 660 R1=OPip R2=(S)Lac-Et]: in test [2], the EC50 was 500 to 5000 nM.

`CCOC(=O)C(C)OP(=O)(COc1ccc(CC(NC(=O)OC2COC3OCCC23)C(O)CN(CC(C)C)S(=O)(=O)c2ccc(OC)cc2)cc1)Oc1ccccc1` (stereo not drawn) [drawing 661 R1=OPh R2=Lac-Et]: the EC50 in test [2] fell in the range of 50 to 500 nM.

On to `CCOC(=O)C(CC)NP(=O)(CCNCc1ccc(C[C@H](NC(=O)O[C@H]2CO[C@H]3OCC[C@H]32)[C@H](O)CN(CC(C)C)S(=O)(=O)c2ccc(OC)cc2)cc1)Oc1ccccc1` (stereo partly drawn) [drawing 662 R1=Ph R2=Aba-Et], for which the EC50 in test [2] was 500 to 5000 nM.

`CCCCOC(=O)C(C)OP(=O)(COc1ccc(C[C@H](NC(=O)O[C@H]2CO[C@H]3OCC[C@H]32)[C@H](O)CN(CC(C)C)S(=O)(=O)c2cccc(N)c2)cc1)Oc1ccccc1` (stereo partly drawn) [drawing 764]: the EC50 in test [2] is 50 to 500 nM.

The EC50 is the concentration needed to bring the measured effect to its halfway point.
